The values that follow come from patent US20080070946A1, “Hydroxymethylbenzothiazoles Amides” (AstraZeneca AB, priority 2004, published 2008).

Data set [1] concerns the target T1, hVR1 (Homo sapiens, UniProt Q8NER1).
T1 construct: expressed in transfected cells
Briefly: hVR1 FLIPR (Fluorometric Image Plate Reader) screening assay, IC50 determination. Format: cell-based. Particulars: CHO cells stably expressing hVR1. As to the method:
1. hVR1 FLIPR (Fluorometric Image Plate Reader) Screening Assay
Transfected CHO cells, stably expressing hVR1 (15,000 cells/well) are seeded in 50 ul media in a black clear bottom 384 plate (Greiner) and grown in a humidified incubator (37° C., 2% CO2), 24-30 hours prior to experiment.
Subsequently, the media is removed from the cell plate by inversion and 2 μM Fluo-4 is added using a multidrop (Labsystems). Following the 40 minutes dye incubation in the dark at 37° C. and 2% CO2, the extracellular dye present is washed away using an EMBLA (Scatron), leaving the cells in 40 ul of assay buffer (1× HBSS, 10 mM D-Glucose, 1 mM CaCl2, 10 mM HEPES, 10×7.5% NaHCO3 and 2.5 mM Probenecid).
FLIPR Assay—IC50 Determination Protocol
For IC50 determinations the fluorescence is read using FLIPR filter 1 (em […]). A cellular baseline recording is taken for 30 seconds, followed by a 20 μl addition of 10, titrated half-log concentrations of the test compound, yielding cellular concentration ranging from 3 μM to 0.1 nM. Data is collected every 2 seconds for a further 5 minutes prior to the addition of a VR1 agonist solution: either 50 nM solution of capsaicin or MES (2-[N-morpholino]ethanesulfonic acid) buffer (pH 5.2), by the FLIPR pipettor. The FLIPR continues to collect data for a further 4 minutes. Compounds having antagonistic properties against the hVR1 will inhibit the increase in intracellular calcium in response to the capsaicin addition. This consequently leading to a reduction in fluorescence signal and providing a reduced fluorescence reading, compared with no compound, buffer controls. Data is exported by the FLIPR program as a sum of fluorescence calculated under the curve upon the addition of capsaicin. Maximum inhibition, Hill slope and IC50 data for each compound are generated.

Data set [2] is described as follows: Metabolic stability in rat hepatocytes (intrinsic clearance). Particulars: male, Sprague-Dawley, freshly isolated rat hepatocytes, read-out: rClint hep. Format: in vitro ADME. The protocol:
Metabolic Stability in Rat Hepatocytes
Cells source: in house fresh isolated rat hepatocytes from male sprague-Dawley.
1 μM of compound incubated in Krebs-Heinsleit buffer with 1×10^6 cells in 37° C. for 0, 15, 30, 60 and 90 min. A total volume of each incubation was 100 μL containing 0.1% DMSO. The reaction was stopped by adding 100 μL acetonitrile.
After reaction was stopped. The sample was centrifuged at 1900 g for 5 min. Supernatant was transferred to a clean tube for analysis.

T1 sequence (Q8NER1 whole entry): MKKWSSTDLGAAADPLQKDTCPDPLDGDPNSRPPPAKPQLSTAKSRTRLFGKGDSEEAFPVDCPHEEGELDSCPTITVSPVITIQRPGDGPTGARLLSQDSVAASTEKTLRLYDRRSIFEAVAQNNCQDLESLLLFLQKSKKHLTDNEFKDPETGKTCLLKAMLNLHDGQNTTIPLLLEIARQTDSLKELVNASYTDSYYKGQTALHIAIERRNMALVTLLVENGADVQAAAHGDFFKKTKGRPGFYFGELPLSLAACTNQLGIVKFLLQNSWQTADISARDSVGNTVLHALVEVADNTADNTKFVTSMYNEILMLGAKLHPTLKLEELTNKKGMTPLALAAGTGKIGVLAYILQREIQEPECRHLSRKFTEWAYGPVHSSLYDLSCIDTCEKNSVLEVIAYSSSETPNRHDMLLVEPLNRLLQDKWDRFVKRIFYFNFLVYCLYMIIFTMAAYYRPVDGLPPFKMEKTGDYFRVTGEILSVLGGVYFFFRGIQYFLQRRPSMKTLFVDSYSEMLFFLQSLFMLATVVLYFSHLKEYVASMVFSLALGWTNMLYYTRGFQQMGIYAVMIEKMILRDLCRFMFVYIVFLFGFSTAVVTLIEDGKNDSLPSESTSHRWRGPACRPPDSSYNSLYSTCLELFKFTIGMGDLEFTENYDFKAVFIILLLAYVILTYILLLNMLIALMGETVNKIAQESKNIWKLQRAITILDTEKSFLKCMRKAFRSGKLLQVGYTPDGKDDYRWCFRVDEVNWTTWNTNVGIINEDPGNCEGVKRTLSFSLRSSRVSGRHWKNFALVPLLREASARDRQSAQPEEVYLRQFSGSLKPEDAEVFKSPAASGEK

Broadly, the IC50 is the concentration that inhibits the measured activity by half. Low readings indicate higher potency, high ones lower potency. Take `O=C(Nc1ccc2sc(CO)nc2c1)c1ccc(OC(F)(F)C(F)F)cc1` [Example 5, N-[2-(hydroxymethyl)-1,3-benzothiazol-5-yl]-4-(1,1,2,2-tetrafluoroethoxy)benzamide]: the IC50 in data set [1] (agonist capsaicin) worked out at 8 nM.

As to `O=C(Nc1ccc2sc(CO)nc2c1)c1ccc(C2CCCCC2)cc1` [Example 6, 4-Cyclohexyl-N-[2-(hydroxymethyl)-1,3-benzothiazol-5-yl]benzamide], in data set [1] (agonist capsaicin), the IC50 was determined as 23 nM.

In data set [1] (agonist capsaicin), `O=C(Nc1ccc2sc(CO)nc2c1)c1ccc(C(F)(F)F)c(F)c1` [Example 7, 3-Fluoro-N-[2-(hydroxymethyl)-1,3-benzothiazol-5-yl]-4-(trifluoromethyl)benzamide] had an IC50 of 4 nM.

`O=C(Nc1ccc2sc(CO)nc2c1)c1ccc(C(F)(F)F)nc1` [Example 8, N-[2-(hydroxymethyl)-1,3-benzothiazol-5-yl]-6-(trifluoromethyl)nicotinamide] displayed an IC50 in data set [1] (agonist pH 5.2 buffer) of 417 nM. That is a sub-micromolar value.

For `O=C(Nc1ccc2sc(CO)nc2c1)c1ccc(N2CCCCC2)nc1` [Example 9, N-[2-(hydroxymethyl)-1,3-benzothiazol-5-yl]-6-piperidin-1-ylnicotinamide], the IC50 in data set [1] (agonist capsaicin) was 86 nM.

Consider `CN(C)c1ccc(C(=O)Nc2ccc3sc(CO)nc3c2)c2ccccc12` [Example 10, 4-(dimethylamino)-N-[2-(hydroxymethyl)-1,3-benzothiazol-5-yl]-1-naphthamide], for which the IC50 in data set [1] (agonist capsaicin) came out at 54 nM. Also, the Hepatocyte intrinsic clearance at 1 μM in data set [2] came out at 14 µL/min/mg.

For `Cc1cc(OC(C)(C)C)ccc1C(=O)Nc1ccc2sc(CO)nc2c1` [Example 23, 4-tert-butoxy-N-[2-(hydroxymethyl)-1,3-benzothiazol-5-yl]-2-methylbenzamide], the IC50 in data set [1] (agonist capsaicin) worked out at 59 nM. Besides, in data set [2], the Hepatocyte intrinsic clearance at 1 μM stood at 22 µL/min/mg.

In data set [1] (agonist capsaicin), `Cc1cc(OC(C)C)ccc1C(=O)Nc1ccc2sc(CO)nc2c1` [Example 24, N-[2-(hydroxymethyl)-1,3-benzothiazol-5-yl]-4-isopropoxy-2-methylbenzamide] showed an IC50 of 47 nM. Besides, the Hepatocyte intrinsic clearance at 1 μM in data set [2] is 10 µL/min/mg.

On to `Cc1cc(OC(C)C)ccc1C(=O)Nc1ccc2sc(CO)nc2c1F` [Example 40, N-[4-fluoro-2-(hydroxymethyl)-1,3-benzothiazol-5-yl]-4-isopropoxy-2-methylbenzamide], for which the IC50 in data set [1] (agonist capsaicin) stood at 67 nM. Besides, the Hepatocyte intrinsic clearance at 1 μM in data set [2] was found to be 11.8 µL/min/mg.

In data set [1] (agonist capsaicin), `Cc1nc(C(F)(F)F)ccc1C(=O)Nc1ccc2sc(CO)nc2c1F` [Example 41, N-[4-fluoro-2-(hydroxymethyl)-1,3-benzothiazol-5-yl]-2-methyl-6-(trifluoromethyl)nicotinamide] showed a 50% inhibitory concentration (IC50) of 1950 nM.

As to `O=C(Nc1ccc2sc(CO)nc2c1F)c1ccc(C(F)(F)F)nc1` [Example 42, N-[4-fluoro-2-(hydroxymethyl)-1,3-benzothiazol-5-yl]-6-(trifluoromethyl)nicotinamide], the IC50 in data set [1] (agonist capsaicin) was 904 nM.

The compound `O=C(Nc1ccc2sc(CO)nc2c1F)c1ccc(OCC(F)(F)F)nc1` [Example 43, N-[4-fluoro-2-(hydroxymethyl)-1,3-benzothiazol-5-yl]-6-(2,2,2-trifluoroethoxy)nicotinamide] displayed an IC50 in data set [1] (agonist capsaicin) of 489 nM. Against the preceding compound, the IC50 is about 1.8-fold lower.
